Measurements: ChEMBL document CHEMBL4033763, “Synthesis and Anti-HCV Activity of a Novel 2',3'-Dideoxy-2'-α-fluoro-2'-β-C-methyl Guanosine Phosphoramidate Prodrug” (ACS Med Chem Lett, 2017)

Experiments:
[1] = Cytotoxicity against human HuH7 cells expressing HIV LTR promoter driven luciferase reporter gene in presence of 10% fetal bovine serum by lucifrease reporter gene assay; assay type: cell-based, Huh-7
Hepatitis C virus [2] = assay: Antiviral activity against HCV 1b replicon infected in human HuH7 cells expressing HIV LTR promoter driven luciferase reporter gene assessed as reduction in viral RNA replication incubated for 48 hrs by lucifrease reporter gene assay; assay type: functional, cell-based, Hepacivirus hominis; settings: genotype 1b, Huh-7, 48 h
Hepatitis C virus [3] = assay: Antiviral activity against HCV 1a replicon infected in human HuH7 cells expressing HIV LTR promoter driven luciferase reporter gene assessed as reduction in viral RNA replication incubated for 48 hrs by lucifrease reporter gene assay; assay type: functional, cell-based, Hepacivirus hominis; settings: subtype 1a, Huh-7, 48 h
Hepatitis C virus [4] = assay: Antiviral activity against HCV 2a replicon infected in human HuH7 cells expressing HIV LTR promoter driven luciferase reporter gene assessed as reduction in viral RNA replication incubated for 48 hrs by lucifrease reporter gene assay; assay type: functional, cell-based, Hepacivirus hominis; settings: genotype 2a, Huh-7, 48 h
Hepatitis C virus [5] = assay: Antiviral activity against NS5B S282T mutant expressing HCV 1b replicon infected in human HuH7 cells expressing HIV LTR promoter driven luciferase reporter gene assessed as reduction in viral RNA replication incubated for 48 hrs by lucifrease reporter gene assay; assay type: functional, cell-based, Hepacivirus hominis; settings: genotype 1b, Huh-7, 48 h

Row | Compound | CC50 [1] | EC50 (Hepatitis C virus [2]) | EC50 (Hepatitis C virus [3]) | EC50 (Hepatitis C virus [4]) | EC50 (Hepatitis C virus [5])
1 | COc1nc(N)nc2c1ncn2[C@@H]1O[C@H](CO[P@@](=O)(N[C@@H](C)C(=O)OC2CCCC2)Oc2ccccc2)C[C@@]1(C)F | > 100000 nM | 580 nM | 1100 nM | 390 nM | 810 nM
2 | COc1nc(N)nc2c1ncn2[C@@H]1O[C@H](CO)C[C@@]1(C)F | > 100000 nM | > 100000 nM |  |  | 
